Our source for the EC50 and IC50 values is patent US20230340011A1 (Asteroid Therapeutics, priority 2022, published 2023).

In one assay the target is LXRβ (Homo sapiens (Human), UniProt P55055). As to the kind of experiment: In vitro assay LXRβ: PathHunter NHR CHO cells, LXRβ / Steroid Receptor Co-activator Peptide enzyme fragment complementation. Format: cell-based. Particulars: PathHunter NHR CHO cells, full-length human LXRβ and SRCP, chemiluminescent signal; read-out: LXRβ PPI. In short, it runs like this: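 Co-activator recruitment measured by chemiluminescence after signal generation. The CHO line carries full-length human LXRβ tagged with ProLink and an SRCP–enzyme acceptor fusion in the nucleus; cells sat overnight at 37° C before testing, in charcoal-dextran filtered serum medium with 1% final vehicle.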
Chain of LXRβ (P55055 whole entry, the tested form may be a part): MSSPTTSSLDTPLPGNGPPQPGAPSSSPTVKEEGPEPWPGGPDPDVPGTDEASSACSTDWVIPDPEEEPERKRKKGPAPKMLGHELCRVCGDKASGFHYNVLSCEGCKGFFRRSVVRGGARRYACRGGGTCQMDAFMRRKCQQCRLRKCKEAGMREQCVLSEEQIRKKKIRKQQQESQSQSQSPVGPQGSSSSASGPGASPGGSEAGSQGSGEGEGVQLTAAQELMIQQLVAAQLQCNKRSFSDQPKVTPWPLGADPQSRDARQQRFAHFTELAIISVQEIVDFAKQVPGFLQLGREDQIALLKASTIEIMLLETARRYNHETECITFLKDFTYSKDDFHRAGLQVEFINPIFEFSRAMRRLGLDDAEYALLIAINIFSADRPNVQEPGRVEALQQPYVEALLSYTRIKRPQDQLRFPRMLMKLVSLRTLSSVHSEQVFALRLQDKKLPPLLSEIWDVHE

The target in a further assay is SREBP-2 (Homo sapiens (Human), UniProt Q12772). As to the kind of experiment: In vitro assay SREBP-2: PathHunter U2OS SREBP-2 Nuclear Translocation Cell Line, U18666A-stimulated. It is filed as cell-based. Particulars: PathHunter U2OS SREBP-2 nuclear translocation cells, U18666A 10 μM, overnight (16 hours).

`C[C@H](C(=O)Nc1ccncc1)[C@H]1CC[C@H]2[C@@H]3CC=C4C[C@@H](O)CC[C@]4(C)[C@H]3CC[C@]12C` [Example 600, (S)-2-((3S,8S,9S,10R,13S,14S,17R)-3-hydroxy-10,13-dimethyl-2,3,4,7,8,9,10,11,12,13,14,15,16,17-tetradecahydro-1H-cyclopenta[a]phenanthren-17-yl)-N-(pyridin-4-yl)propanamide]: the EC50 on LXRβ was more than 10000 nM. This compound also returned an IC50 against SREBP-2 of 1000 to 10000 nM.

Regarding `COc1ccc(CC[C@@H](C)[C@H]2CC[C@H]3[C@@H]4CC=C5C[C@@H](O)CC[C@]5(C)[C@H]4CC[C@]23C)nc1` [Example 601, (1R,3aS,3bS,7S,9aR,9bS,11aR)-1-[(2R)-4-(5-methoxypyridin-2-yl)butan-2-yl]-9a,11a-dimethyl-1H,2H,3H,3aH,3bH,4H,6H,7H,8H,9H,9aH,9bH,10H,11H,11aH-cyclopenta[a]phenanthren-7-ol], the EC50 on LXRβ was 1000 to 10000 nM. Moreover, the IC50 at SREBP-2 was in the range of 250 to 1000 nM.

For the compound `COc1ccnc(CC[C@@H](C)[C@H]2CC[C@H]3[C@@H]4CC=C5C[C@@H](O)CC[C@]5(C)[C@H]4CC[C@]23C)c1` [Example 602, (3S,8S,9S,10R,13R,14S,17R)-17-((R)-4-(4-methoxypyridin-2-yl)butan-2-yl)-10,13-dim ethyl-2,3,4,7,8,9,10,11,12,13,14,15,16,17-tetradecahydro-1H-cyclopenta[a]phenanthren-3-ol], the EC50 at LXRβ was 250 to 1000 nM. In addition, on SREBP-2, the IC50 was less than 250 nM.

In the case of `Cc1c(N2CCN(C(=O)CC[C@@H](C)[C@H]3CC[C@H]4[C@@H]5CC=C6C[C@@H](O)CC[C@]6(C)[C@H]5CC[C@]34C)CC2)cnn1C` [Example 603, (R)-1-(4-(1,5-dimethyl-1H-pyrazol-4-yl)piperazin-1-yl)-4-((3S,8S,9S,10R,13R,14S,17R)-3-hydroxy-10,13-dimethyl-2,3,4,7,8,9,10,11,12,13,14,15,16,17-tetradecahydro-1H-cyclopenta[a]phenanthren-17-yl)pentan-1-one], the EC50 at LXRβ was more than 10000 nM. Also, the IC50 against SREBP-2 is less than 250 nM.

On to `Cc1nn(C)cc1N1CCN(C(=O)CC[C@@H](C)[C@H]2CC[C@H]3[C@@H]4CC=C5C[C@@H](O)CC[C@]5(C)[C@H]4CC[C@]23C)CC1` [Example 604, (4R)-4-[(1R,3aS,3bS,7S,9aR,9bS,11aR)-7-hydroxy-9a,11a-dimethyl-1H,2H,3H,3aH,3bH,4H,6H,7H,8H,9H,9aH,9bH,10H,11H,11aH-cyclopenta[a]phenanthren-1-yl]-1-[4-(1,3-dimethyl-1H-pyrazol-4-yl)piperazin-1-yl]pentan-1-one], for which the EC50 on LXRβ is more than 10000 nM. In addition, the IC50 against SREBP-2 was less than 250 nM.

As to `C[C@H](CCC(=O)N1CCN(c2ncnn2C)CC1)[C@H]1CC[C@H]2[C@@H]3CC=C4C[C@@H](O)CC[C@]4(C)[C@H]3CC[C@]12C` [Example 605, (R)-4-((3S,8S,9S,10R,13R,14S,17R)-3-hydroxy-10,13-dimethyl-2,3,4,7,8,9,10,11,12,13,14,15,16,17-tetradecahydro-1H-cyclopenta[a]phenanthren-17-yl)-1-(4-(1-methyl-1H-1,2,4-triazol-5-yl)piperazin-1-yl)pentan-1-one], the EC50 at LXRβ is more than 10000 nM. Also, the IC50 against SREBP-2 is less than 250 nM.

In the case of `C[C@H](CCC(=O)N1CCN(c2nnnn2C)CC1)[C@H]1CC[C@H]2[C@@H]3CC=C4C[C@@H](O)CC[C@]4(C)[C@H]3CC[C@]12C` [Example 606, (R)-4-((3S,8S,9S,10R,13R,14S,17R)-3-hydroxy-10,13-dimethyl-2,3,4,7,8,9,10,11,12,13,14,15,16,17-tetradecahydro-1H-cyclopenta[a]phenanthren-17-yl)-1-(4-(1-methyl-1H-tetrazol-5-yl)piperazin-1-yl)pentan-1-one], the EC50 on LXRβ is more than 10000 nM. On SREBP-2, this compound came in with an IC50 of less than 250 nM.

Turning to `Cc1ncsc1N1CCN(C(=O)CC[C@@H](C)[C@H]2CC[C@H]3[C@@H]4CC=C5C[C@@H](O)CC[C@]5(C)[C@H]4CC[C@]23C)CC1` [Example 607, (R)-4-((3S,8S,9S,10R,13R,14S,17R)-3-hydroxy-10,13-dimethyl-2,3,4,7,8,9,10,11,12,13,14,15,16,17-tetradecahydro-1H-cyclopenta[a]phenanthren-17-yl)-1-(4-(4-methylthiazol-5-yl)piperazin-1-yl)pentan-1-one], the EC50 on LXRβ is more than 10000 nM. The same compound registered an IC50 against SREBP-2 of less than 250 nM.

Take `C[C@H](CCC(=O)N1CCN(c2ccnn2C)[C@@H](C)C1)[C@H]1CC[C@H]2[C@@H]3CC=C4C[C@@H](O)CC[C@]4(C)[C@H]3CC[C@]12C` [Example 608, (R)-4-((3S,8S,9S,10R,13R,14S,17R)-3-hydroxy-10,13-dimethyl-2,3,4,7,8,9,10,11,12,13,14,15,16,17-tetradecahydro-1H-cyclopenta[a]phenanthren-17-yl)-1-((S)-3-methyl-4-(1-methyl-1H-pyrazol-5-yl)piperazin-1-yl)pentan-1-one]: the EC50 at LXRβ was more than 10000 nM. At SREBP-2, this compound returned an IC50 of less than 250 nM.

`C[C@H](CCC(=O)N1CCN(c2ccnn2C)C[C@@H]1C)[C@H]1CC[C@H]2[C@@H]3CC=C4C[C@@H](O)CC[C@]4(C)[C@H]3CC[C@]12C` [Example 609, (R)-4-((3S,8S,9S,10R,13R,14S,17R)-3-hydroxy-10,13-dimethyl-2,3,4,7,8,9,10,11,12,13,14,15,16,17-tetradecahydro-1H-cyclopenta[a]phenanthren-17-yl)-1-((S)-2-methyl-4-(1-methyl-1H-pyrazol-5-yl)piperazin-1-yl)pentan-1-one]: the EC50 on LXRβ was more than 10000 nM. Also, the IC50 against SREBP-2 was less than 250 nM.

Regarding `COc1nccnc1N1CCN(C(=O)CC[C@@H](C)[C@H]2CC[C@H]3[C@@H]4CC=C5C[C@@H](O)CC[C@]5(C)[C@H]4CC[C@]23C)CC1` [Example 610, (R)-4-((3S,8S,9S,10R,13R,14S,17R)-3-hydroxy-10,13-dimethyl-2,3,4,7,8,9,10,11,12,13,14,15,16,17-tetradecahydro-1H-cyclopenta[a]phenanthren-17-yl)-1-(4-(3-methoxypyrazin-2-yl)piperazin-1-yl)pentan-1-one], the EC50 at LXRβ is more than 10000 nM. The same compound returned an IC50 at SREBP-2 of less than 250 nM.

With `COc1ccncc1N1CCN(C(=O)CC[C@@H](C)[C@H]2CC[C@H]3[C@@H]4CC=C5C[C@@H](O)CC[C@]5(C)[C@H]4CC[C@]23C)CC1` [Example 611, (R)-4-((3S,8S,9S,10R,13R,14S,17R)-3-hydroxy-10,13-dimethyl-2,3,4,7,8,9,10,11,12,13,14,15,16,17-tetradecahydro-1H-cyclopenta[a]phenanthren-17-yl)-1-(4-(4-methoxypyridin-3-yl)piperazin-1-yl)pentan-1-one], the EC50 on LXRβ is more than 10000 nM. On SREBP-2, this compound yielded an IC50 of less than 250 nM.

Turning to `COc1ncccc1N1CCN(C(=O)CC[C@@H](C)[C@H]2CC[C@H]3[C@@H]4CC=C5C[C@@H](O)CC[C@]5(C)[C@H]4CC[C@]23C)CC1` [Example 612, (R)-4-((3S,8S,9S,10R,13R,14S,17R)-3-hydroxy-10,13-dimethyl-2,3,4,7,8,9,10,11,12,13,14,15,16,17-tetradecahydro-1H-cyclopenta[a]phenanthren-17-yl)-1-(4-(2-methoxypyridin-3-yl)piperazin-1-yl)pentan-1-one], the EC50 on LXRβ was more than 10000 nM. At SREBP-2, this compound displayed an IC50 of less than 250 nM.

Broadly, the IC50 is the point on the concentration scale where inhibition reaches its midpoint. A high value points to weaker potency in that assay.
